One assay deals with T1, recombinant BRD4 BD2 (Homo sapiens, UniProt O60885).
T1 construct: for recombinant BRD4 BD1 and BRD4 BD2 proteins
The assay is described as follows: Competitive fluorescence-polarization (FP) binding assay, BRD4 BD2. For IC50 (nM) BRD4 BD2: probe 1.5 nM. Conditions: for Ki: read-out: Binding affinities (FP) BRD4BD2 Ki. The procedure: (§1) Fluorescence Polarization (FP) competitive binding studies were carried out using a FAM labeled fluorescent probe (ZBA248 or BRD-1F) to determine binding affinities of representative Compounds of the Disclosure for recombinant BRD4 BD1 and BRD4 BD2 proteins. For example, equilibrium dissociation constants (Kd) values of ZBA248 to these […] proteins were determined from protein saturation experiments by monitoring the total fluorescence polarization of mixtures composed with the fluorescent probe at a fixed concentration and proteins with increasing concentrations up to full saturation. Serial dilutions of testing protein were mixed with ZBA248 to a final volume of 200 μl in the assay buffer. […] Plates were incubated at room temperature for 30 minutes with gentle shaking to assure equilibrium. […] Kd values of ZBA248 were calculated by fitting the sigmoidal dose-dependent FP increases as a function of protein concentrations using Graphpad Prism 6.0 software (Graphpad Software, San Diego, Calif.).
(§2) The IC50 and Ki values of representative Compounds of the Disclosure were determined in a competitive binding experiment as described above. Mixtures of 10 μl of the tested compounds in assay buffer with 40% Ethylene Glycol and 190 μl of preincubated protein/probe complex solution in the assay buffer (100 mM potassium phosphate, pH 6.5, 0.01% Triton X-100) were added into assay plates which were incubated at room temperature for 30 minutes with gentle shaking. Final concentrations of proteins were 10 and 6 nM in assays for BD1 and BD2 of BRD4, respectively. […] FP values were measured as described above. IC50 values were determined by nonlinear regression fitting of the competition curves.

For another assay, the target named is T2, recombinant BRD4 BD1 (Homo sapiens, UniProt O60885).
T2 construct: for recombinant BRD4 BD1 and BRD4 BD2 proteins
The assay is described as follows: Competitive fluorescence-polarization (FP) binding assay, BRD4 BD1. For IC50 (nM) BRD4 BD1: probe 1.5 nM. To be noted: for Ki: read-out: Binding affinities (FP) BRD4BD1 Ki. The procedure:
as §1, §2

The next assay has as its system MDA-MB-436. The assay is described as follows: Cell growth inhibition, MDA-MB-436 breast cancer cells (WST-8). Format: cell-based. Conditions: Homo sapiens, 4 days. The procedure:
All the breast cancer cell lines were obtained from the ATCC. Cell viability was determined using the WST-8 (2-(2-methoxy-4-nitrophenyl)-3-(4-nitrophenyl)-5-(2,4-disulfophenyl)-2H-tetrazolium, monosodium salt) based Cell Counting-8 Kit (Dojindo Molecular Technologies, Inc., Rockville, Md.) according to the manufacture's instruction. […] The absorbance was measured at 450 nm using a SPECTRAmax PLUS plate reader (Molecular Devices, Sunnyvale, Calif.). The IC50 was calculated using the GraphPad Prism 5 software.
Background: Tetrazolium assays rely on reduction of a dye to a coloured formazan, in cell work by metabolically active cells.

For the next assay, the system named is MOLM-13. Briefly: Cell growth inhibition, MOLM-13 leukemia cells (CellTiter-Glo). The assay is classed as cell-based. To be noted: Homo sapiens, MOLM-13, 96 h; 4 days; read-out: IC50 (nM) MOLM-13 Cell Line (CellTiter-Glo assay). The method, then:
Cell growth inhibitory activity of representative Compounds of the Disclosure was determined using CellTiter-Glo® Luminescent Cell Viability Assay. […] Cell viability was determined using the CellTiter-Glo® Luminescent Cell Viability Assay Kit (Promega, Madison, Wis.) according to the manufacture's instruction. Briefly, a volume of CellTiter-Glo® Reagent equal to the volume of cell culture medium was added to each well, and then the plates were incubated at room temperature for 10-20 minutes. The luminescent signal was measured using a Tecan Infinite M1000 multimode microplate reader (Tecan, Morrisville, N.C.). The half maximal inhibitory concentration (IC50) was calculated using the GraphPad Prism 5 software (GraphPad Software, La Jolla, Calif.).

[1] abbreviates: FP competitive binding, BRD4 BD2, read-out: Binding affinities (FP) BRD4BD2 IC50.
Where [2] appears, read: FP competitive binding, BRD4 BD1, read-out: Binding affinities (FP) BRD4BD1 IC50.
The mark [3] stands for this setting: FP competitive binding, BRD4 BD1.
The mark [4] stands for this setting: 96 h, MDA-MB-436 cells, read-out: Cellular data MDA-MB-436 IC50.
The mark [5] stands for this setting: competitive FP assay, protein 6 nM, probe […], read-out: IC50 (nM) BRD4 BD2.
[6] abbreviates: MDA-MB-436, 96 h, read-out: IC50 (nM) MDA-MB-436 Cell Line (WST assay).
[7] abbreviates: FP competitive binding, BRD4 BD2.
Setting [8] is: competitive FP assay, protein 10 nM, probe […], read-out: IC50 (nM) BRD4 BD1.

Read-outs that look alike come from different tables or passages of the source. Bounds are passed on as bounds.

In general, IC50 refers to the point on the concentration scale where inhibition reaches its midpoint. One may read the Ki as a measure of affinity in units of concentration, obtained from inhibition or displacement. As to `COc1nc2c(cc1-c1c(C)noc1C)[nH]c1nc(C)nc(Nc3nn(C)c4ncccc34)c12` [compound 311, 7-(3,5-dimethylisoxazol-4-yl)-6-methoxy-2-methyl-N-(1-methyl-1H-pyrazolo[3,4-b]pyridin-3-yl)-9H-pyrido[2′,3′:4,5]pyrrolo [2,3-d]pyrimidin-4-amine], the IC50 is more than 1000 nM on recombinant BRD4 BD2 (setting [1]), 1090 nM on recombinant BRD4 BD1 (setting [2]) and 1100 nM with MDA-MB-436 (setting [4]). The inhibitory constant (Ki) on recombinant BRD4 BD1 (setting [3]) is 602 nM.

As to `COc1cc2c(cc1-c1c(C)noc1C)[nH]c1nc(C)nc(Nc3c[nH]nc3-c3ccccc3)c12` [Cpd. No. 2, 7-(3,5-Dimethylisoxazol-4-yl)-6-methoxy-2-methyl-N-(3-phenyl-1H-pyrazol-4-yl)-9H-pyrimido[4,5-b]indol-4-amine], the IC50 at recombinant BRD4 BD2 (setting [5]) is 41.9 nM; in the assay with MOLM-13, 68 nM; with MDA-MB-436 (setting [6]), 246 nM.

On to `COc1cc2c(cc1-c1c(C)noc1C)[nH]c1nc(C)nc(Nc3nn(C)c4ccccc34)c12` [Cpd. No. 12, 7-(3,5-Dimethylisoxazol-4-yl)-6-methoxy-2-methyl-N-(1-methyl-1H-indazol-3-yl)-9H-pyrimido[4,5-b]indol-4-amine], for which the values for the 50% inhibitory concentration (IC50) on recombinant BRD4 BD2 (setting [5]), in the assay on MOLM-13 and in the assay on MDA-MB-436 (setting [6]) were 28.2 nM, 15.2 nM and 59.6 nM, respectively.

For `COc1nc2c(cc1-c1c(C)noc1C)[nH]c1nc(C)nc(N(C)c3nn(C)c4ncccc34)c12` [compound 318, 7-(3,5-dimethylisoxazol-4-yl)-6-methoxy-N,2-dimethyl-N-(1-methyl-1H-pyrazolo[3,4-b]pyridin-3-yl)-9H-pyrido[2′,3′:4,5]pyrrolo[2,3-d] pyrimidin-4-amine], the IC50 on recombinant BRD4 BD2 (setting [1]) stood at 108 nM; at recombinant BRD4 BD1 (setting [2]), 35 nM; with MDA-MB-436 (setting [4]) it was 299 nM. In addition, the Ki on recombinant BRD4 BD2 (setting [7]) is 34 nM; on recombinant BRD4 BD1 (setting [3]), 12 nM.

As for `COc1nc2c(cc1-c1c(C)noc1C)[nH]c1nc(C)nc(N(C)c3cc(C4CC4)nn3C)c12` [compound 320, N-(3-cyclopropyl-1-methyl-1H-pyrazol-5-yl)-7-(3,5-dimethylisoxazol-4-yl)-6-methoxy-N,2-dimethyl-9H-pyrido[2′,3′:4,5]pyrrolo[2,3-d] pyrimidin-4-amine], the figures for the half-maximal inhibitory concentration (IC50) on recombinant BRD4 BD2 (setting [1]), on recombinant BRD4 BD1 (setting [2]) and with MDA-MB-436 (setting [4]) were 7 nM, 10.2 nM and 85 nM, respectively. Moreover, the values for the Ki on recombinant BRD4 BD2 (setting [7]) and on recombinant BRD4 BD1 (setting [3]) were 1.3 nM and 1.8 nM, respectively.

For the molecule `COc1nc2c(cc1-c1c(C)noc1C)[nH]c1nc(C)nc(N(C)C3CCCC3)c12` [compound 321, N-cyclopentyl-7-(3,5-dimethylisoxazol-4-yl)-6-methoxy-N,2-dimethyl-9H-pyrido[2′,3′:4,5]pyrrolo[2,3-d] pyrimidin-4-amine], the IC50 came to 796 nM on recombinant BRD4 BD2 (setting [1]), 482 nM on recombinant BRD4 BD1 (setting [2]) and 4430 nM with MDA-MB-436 (setting [4]). In addition, the values for the Ki at recombinant BRD4 BD2 (setting [7]) and on recombinant BRD4 BD1 (setting [3]) were 239 nM and 171 nM, respectively.

For the molecule `COc1nc2c(cc1-c1c(C)noc1C)[nH]c1nc(C)nc(N(C)c3cccc(C)c3)c12` [compound 317, 7-(3,5-dimethylisoxazol-4-yl)-6-methoxy-N,2-dimethyl-N-(m-tolyl)-9H-pyrido[2′,3′:4,5]pyrrolo[2,3-d] pyrimidin-4-amine], the IC50 on recombinant BRD4 BD2 (setting [1]) came out at 139 nM; at recombinant BRD4 BD1 (setting [2]), 74 nM; with MDA-MB-436 (setting [4]), 1140 nM. Further, the figures for the inhibition constant Ki on recombinant BRD4 BD2 (setting [7]) and on recombinant BRD4 BD1 (setting [3]) were 44 nM and 27 nM, respectively.

As to `COc1nc2c(cc1-c1c(C)noc1C)[nH]c1nc(C)nc(N(C)c3c(C)cnn3C(C)C)c12` [compound 319, 7-(3,5-dimethylisoxazol-4-yl)-N-(1-isopropyl-4-methyl-1H-pyrazol-5-yl)-6-methoxy-N,2-dimethyl-9H-pyrido[2′,3′:4,5]pyrrolo[2,3-d] pyrimidin-4-amine], the figures for the IC50 at recombinant BRD4 BD2 (setting [1]), at recombinant BRD4 BD1 (setting [2]) and in the assay on MDA-MB-436 (setting [4]) were 92 nM, 102 nM and 646 nM, respectively. Also, the inhibition constant Ki on recombinant BRD4 BD2 (setting [7]) stood at 27 nM; on recombinant BRD4 BD1 (setting [3]) it was 38 nM.

Turning to `COc1cc2c(cc1-c1c(C)noc1C)[nH]c1nc(C)nc(Nc3nn(C)c4ccc(F)cc34)c12` [Cpd. No. 127, 7-(3,5-Dimethylisoxazol-4-yl)-N-(5-fluoro-1-methyl-1H-indazol-3-yl)-6-methoxy-2-methyl-9H-pyrimido[4,5-b]indol-4-amine], the IC50 was 178 nM in the assay on MOLM-13 and 508 nM in the assay on MDA-MB-436 (setting [6]).

Take `COc1cc2c(cc1-c1c(C)noc1C)[nH]c1nc(C)nc(Nc3sc(-c4ncco4)nc3-c3ccccc3)c12` [Cpd. No. 6, N-(7-(3,5-Dimethylisoxazol-4-yl)-6-methoxy-2-methyl-9H-pyrimido[4,5-b]indol-4-yl)-2-(oxazol-2-yl)-4-phenylthiazol-5-amine]: the figures for the half-maximal inhibitory concentration (IC50) in the assay on MOLM-13 and in the assay with MDA-MB-436 (setting [6]) were 52.6 nM and 1520 nM, respectively.

For `COc1nc2c(cc1-c1c(C)noc1C)[nH]c1nc(C)nc(N(C)c3cc(C)nn3C(C)(C)C)c12` [compound 316, N-(1-(tert-butyl)-3-methyl-1H-pyrazol-5-yl)-7-(3,5-dimethylisoxazol-4-yl)-6-methoxy-N,2-dimethyl-9H-pyrido[2′,3′:4,5]pyrrolo [2,3-d]pyrimidin-4-amine], the IC50 is 311 nM at recombinant BRD4 BD2 (setting [1]), 317 nM on recombinant BRD4 BD1 (setting [2]) and 1020 nM in the assay with MDA-MB-436 (setting [4]). In addition, the Ki at recombinant BRD4 BD2 (setting [7]) and on recombinant BRD4 BD1 (setting [3]) was 106 nM each time.

`COc1nc2c(cc1-c1c(C)noc1C)[nH]c1nc(C)nc(Nc3cccc(C)c3)c12` [compound 313, 7-(3,5-dimethylisoxazol-4-yl)-6-methoxy-2-methyl-N-(m-tolyl)-9H-pyrido[2′,3′:4,5]pyrrolo[2,3-d] pyrimidin-4-amine]: the concentration for half-maximal inhibition (IC50) at recombinant BRD4 BD2 (setting [1]) is 4070 nM; at recombinant BRD4 BD1 (setting [2]), 4070 nM; with MDA-MB-436 (setting [4]) it was more than 2000 nM. In addition, the Ki at recombinant BRD4 BD2 (setting [7]) worked out at 1140 nM; at recombinant BRD4 BD1 (setting [3]), 1200 nM.

For the molecule `COc1nc2c(cc1-c1c(C)noc1C)[nH]c1nc(C)nc(Nc3c(C)cnn3C(C)C)c12` [compound 312, 7-(3,5-dimethylisoxazol-4-yl)-N-(1-isopropyl-4-methyl-1H-pyrazol-5-yl)-6-methoxy-2-methyl-9H-pyrido[2′,3′:4,5]pyrrolo[2,3-d] pyrimidin-4-amine], the half-inhibitory concentration (IC50) was 346 nM on recombinant BRD4 BD2 (setting [1]), 378 nM at recombinant BRD4 BD1 (setting [2]) and 1060 nM with MDA-MB-436 (setting [4]). For the same molecule, the inhibition constant (Ki) on recombinant BRD4 BD2 (setting [7]) was determined as 101 nM; at recombinant BRD4 BD1 (setting [3]), 140 nM.

On to `COc1cc2c(cc1-c1c(C)noc1C)[nH]c1nc(C)nc(Nc3cc(C(F)(F)F)nn3C(C)(C)C)c12` [Cpd. No. 117, N-(1-(tert-Butyl)-3-(trifluoromethyl)-1H-pyrazol-5-yl)-7-(3,5-dimethylisoxazol-4-yl)-6-methoxy-2-methyl-9H-pyrimido[4,5-b]indol-4-amine], for which the concentration for half-maximal inhibition (IC50) came out at 90.9 nM with MOLM-13, 62.4 nM on recombinant BRD4 BD1 (setting [8]) and 177 nM with MDA-MB-436 (setting [6]).

Consider `COc1cc2c(cc1-c1c(C)noc1C)[nH]c1nc(C)nc(Nc3cccc4cccnc34)c12` [Cpd. No. 210, 7-(3,5-dimethylisoxazol-4-yl)-6-methoxy-2-methyl-N-(quinolin-8-yl)-9H-pyrimido[4,5-b]indol-4-amine], for which the IC50 on recombinant BRD4 BD2 (setting [5]) was more than 1000 nM; in the assay on MOLM-13 it was 1130 nM; on recombinant BRD4 BD1 (setting [8]) it was more than 1000 nM.

On to `COc1cc(C)cc(Nc2nc(C)nc3[nH]c4cc(-c5c(C)noc5C)c(OC)cc4c23)c1` [Cpd. No. 218, 7-(3,5-dimethylisoxazol-4-yl)-6-methoxy-N-(3-methoxy-5-methylphenyl)-2-methyl-9H-pyrimido[4,5-b]indol-4-amine], for which the IC50 was 15 nM on recombinant BRD4 BD2 (setting [5]), 9340 nM in the assay on MOLM-13 and 17 nM on recombinant BRD4 BD1 (setting [8]).

Source of the values: patent US9580430B2, “9H-pyrimido[4,5-B]indoles and related analogs as BET bromodomain inhibitors” (THE REGENTS OF THE UNIVERSITY OF MICHIGAN, priority 2014, dated 2017).
